{"source": "paper PMC7052193", "about": "“Nanobody-enabled monitoring of kappa opioid receptor states” (Nature Communications, 2020)", "key": {"KOR [1]": {"target": "T1, KOR (Homo sapiens, UniProt P41145)", "assay": "Real-time BRET kinetics of KOR–Nb39", "assay_type": "cell-based", "settings": "SalA / Buffer"}, "KOR [2]": {"target": "T1, KOR", "assay": "Real-time BRET kinetics of KOR–Nb6", "assay_type": "cell-based", "settings": "for BRET, KOR + Nb6: SalA / Buffer"}, "KOR [3]": {"target": "T1, KOR", "assay": "Competition binding with 3H-JDTic in the absence or presence of 5 µM Nb6 or Nb39"}, "MOR": {"target": "T2, MOR (Homo sapiens, UniProt P35372)", "T2 construct": "expressed in transfected cells; host or cells: HEK 293T (by the general BRET protocol; not repeated for MOR)", "assay": "BRET assay MOR and Nb6", "assay_type": "cell-based", "settings": "Log [Drug]"}}, "note": "Values joined by “and” are separate entries in the source; they are usually repeats but may differ in a detail not shown here. Equal entries are not always repeated."}
{"molecule": "COC(=O)[C@@H]1C[C@H](OC(C)=O)C(=O)[C@H]2[C@@]1(C)CC[C@H]1C(=O)O[C@H](c3ccoc3)C[C@]21C", "note": "[Sal A, Salvinorin A]", "values": [{"measurement": "BRET, KOR + Nb39", "setting": "KOR [1]; time 5 min", "value": "0.0262 and 0.02211 and 0.02102 and 0.02289"}, {"measurement": "BRET, KOR + Nb39", "setting": "KOR [1]; time 6 min", "value": "0.3036 and 0.3141 and 0.3188 and 0.3115"}, {"measurement": "BRET, KOR + Nb39", "setting": "KOR [1]; time 7 min", "value": "0.3004 and 0.3137 and 0.3136 and 0.3142"}, {"measurement": "BRET, KOR + Nb39", "setting": "KOR [1]; time 8 min", "value": "0.2978 and 0.3081 and 0.3108 and 0.3153"}, {"measurement": "BRET, KOR + Nb39", "setting": "KOR [1]; time 9 min", "value": "0.2922 and 0.311 and 0.3085 and 0.3127"}, {"measurement": "BRET, KOR + Nb39", "setting": "KOR [1]; time 10 min", "value": "0.2996 and 0.3174 and 0.3198"}, {"measurement": "BRET, KOR + Nb39", "setting": "KOR [1]; time 11 min", "value": "0.2967 and 0.3155 and 0.3205"}, {"measurement": "BRET, KOR + Nb39", "setting": "KOR [1]; time 12 min", "value": "0.298 and 0.3156 and 0.3148 and 0.3226"}, {"measurement": "BRET, KOR + Nb39", "setting": "KOR [1]; time 13 min", "value": "0.2971 and 0.3177 and 0.3205 and 0.3168"}, {"measurement": "BRET, KOR + Nb39", "setting": "KOR [1]; time 14 min", "value": "0.2971 and 0.3134 and 0.3132 and 0.3235"}, {"measurement": "BRET, KOR + Nb39", "setting": "KOR [1]; time 15 min", "value": "0.2986 and 0.3191 and 0.3238 and 0.3265"}, {"measurement": "BRET, KOR + Nb39", "setting": "KOR [1]; time 16 min", "value": "0.2964 and 0.3182 and 0.3184 and 0.324"}, {"measurement": "BRET, KOR + Nb39", "setting": "KOR [1]; time 17 min", "value": "0.3018 and 0.3186 and 0.3227 and 0.3317"}, {"measurement": "BRET, KOR + Nb39", "setting": "KOR [1]; time 18 min", "value": "0.3003 and 0.3158 and 0.3185 and 0.326"}, {"measurement": "BRET, KOR + Nb39", "setting": "KOR [1]; time 19 min", "value": "0.3043 and 0.3186 and 0.3228 and 0.323"}, {"measurement": "BRET, KOR + Nb39", "setting": "KOR [1]; time 20 min", "value": "0.2961 and 0.3231 and 0.3183 and 0.3325"}, {"measurement": "BRET, KOR + Nb39", "setting": "KOR [1]; time 21 min", "value": "0.3008 and 0.3186 and 0.3235"}, {"measurement": "BRET, KOR + Nb39", "setting": "KOR [1]; time 22 min", "value": "0.3025 and 0.3173 and 0.3147 and 0.3318"}, {"measurement": "BRET, KOR + Nb39", "setting": "KOR [1]; time 23 min", "value": "0.2987 and 0.3226 and 0.3296"}, {"measurement": "BRET, KOR + Nb39", "setting": "KOR [1]; time 24 min", "value": "0.2996 and 0.3206 and 0.3159 and 0.3334"}, {"measurement": "BRET, KOR + Nb39", "setting": "KOR [1]; time 25 min", "value": "0.3041 and 0.3179 and 0.3117 and 0.3236"}, {"measurement": "BRET, KOR + Nb39", "setting": "KOR [1]; time 26 min", "value": "0.2994 and 0.3089 and 0.3198 and 0.3347"}, {"measurement": "BRET, KOR + Nb39", "setting": "KOR [1]; time 27 min", "value": "0.3042 and 0.3155 and 0.3211 and 0.3323"}, {"measurement": "BRET, KOR + Nb39", "setting": "KOR [1]; time 28 min", "value": "0.2989 and 0.303 and 0.3151 and 0.3345"}, {"measurement": "BRET, KOR + Nb39", "setting": "KOR [1]; time 29 min", "value": "0.2966 and 0.3193 and 0.305 and 0.3267"}, {"measurement": "BRET, KOR + Nb39", "setting": "KOR [1]; time 30 min", "value": "0.2958 and 0.3183 and 0.3167 and 0.3297"}, {"measurement": "t1/2 of decrease in Nb6-KOR BRET", "setting": "KOR [2]; 10 µM Sal A added", "value": "50 ± 10", "unit": "s"}, {"measurement": "BRET, KOR + Nb6", "setting": "KOR [2]; time 5 min", "value": "1.409 and 1.4035 and 1.421 and 1.389"}, {"measurement": "BRET, KOR + Nb6", "setting": "KOR [2]; time 6 min", "value": "1.298 and 1.281 and 1.268 and 1.228"}, {"measurement": "BRET, KOR + Nb6", "setting": "KOR [2]; time 7 min", "value": "1.173 and 1.165 and 1.166 and 1.137"}, {"measurement": "BRET, KOR + Nb6", "setting": "KOR [2]; time 8 min", "value": "1.122 and 1.113 and 1.12 and 1.093"}, {"measurement": "BRET, KOR + Nb6", "setting": "KOR [2]; time 9 min", "value": "1.088 and 1.0779 and 1.094 and 1.0747"}, {"measurement": "BRET, KOR + Nb6", "setting": "KOR [2]; time 10 min", "value": "1.082 and 1.078 and 1.0874 and 1.065"}, {"measurement": "BRET, KOR + Nb6", "setting": "KOR [2]; time 11 min", "value": "1.074 and 1.07 and 1.083 and 1.058"}, {"measurement": "BRET, KOR + Nb6", "setting": "KOR [2]; time 12 min", "value": "1.074 and 1.063 and 1.076 and 1.058"}, {"measurement": "BRET, KOR + Nb6", "setting": "KOR [2]; time 13 min", "value": "1.075 and 1.061 and 1.082 and 1.064"}, {"measurement": "BRET, KOR + Nb6", "setting": "KOR [2]; time 14 min", "value": "1.069 and 1.063 and 1.08 and 1.062"}, {"measurement": "BRET, KOR + Nb6", "setting": "KOR [2]; time 15 min", "value": "1.083 and 1.067 and 1.08 and 1.061"}, {"measurement": "BRET, KOR + Nb6", "setting": "KOR [2]; time 16 min", "value": "1.077 and 1.067 and 1.078 and 1.056"}, {"measurement": "BRET, KOR + Nb6", "setting": "KOR [2]; time 17 min", "value": "1.076 and 1.07 and 1.085 and 1.064"}, {"measurement": "BRET, KOR + Nb6", "setting": "KOR [2]; time 18 min", "value": "1.081 and 1.07 and 1.082 and 1.068"}, {"measurement": "BRET, KOR + Nb6", "setting": "KOR [2]; time 19 min", "value": "1.086 and 1.077 and 1.091 and 1.066"}, {"measurement": "BRET, KOR + Nb6", "setting": "KOR [2]; time 20 min", "value": "1.081 and 1.073 and 1.083 and 1.0658"}, {"measurement": "BRET, KOR + Nb6", "setting": "KOR [2]; time 21 min", "value": "1.087 and 1.079 and 1.095 and 1.076"}, {"measurement": "BRET, KOR + Nb6", "setting": "KOR [2]; time 22 min", "value": "1.074 (2×) and 1.079 and 1.0714"}, {"measurement": "BRET, KOR + Nb6", "setting": "KOR [2]; time 23 min", "value": "1.088 and 1.082 and 1.074 and 1.0724"}, {"measurement": "BRET, KOR + Nb6", "setting": "KOR [2]; time 24 min", "value": "1.091 and 1.078 and 1.081 and 1.076"}, {"measurement": "BRET, KOR + Nb6", "setting": "KOR [2]; time 25 min", "value": "1.086 and 1.081 and 1.078 and 1.0719"}, {"measurement": "BRET, KOR + Nb6", "setting": "KOR [2]; time 26 min", "value": "1.084 and 1.082 and 1.088 and 1.07"}, {"measurement": "BRET, KOR + Nb6", "setting": "KOR [2]; time 27 min", "value": "1.079 and 1.0834 and 1.085 and 1.083"}, {"measurement": "BRET, KOR + Nb6", "setting": "KOR [2]; time 28 min", "value": "1.084 and 1.076 and 1.086 (2×)"}, {"measurement": "BRET, KOR + Nb6", "setting": "KOR [2]; time 29 min", "value": "1.0858 and 1.081 (2×) and 1.075"}]}
{"molecule": "O=C(N[C@@H]1C=CC2[C@H]3Cc4ccc(O)c5c4[C@@]2(CCN3CC2CC2)[C@H]1O5)c1cccc(I)c1", "note": "(stereo partly shown) [MP1104]", "values": [{"measurement": "effect of Nb6 on binding affinity", "setting": "KOR [3]", "value": "only slightly affected"}]}
{"molecule": "CC[C@H](C)[C@H](NC(=O)[C@H](CCCNC(=N)N)NC(=O)[C@H](CCCNC(=N)N)NC(=O)[C@H](CC(C)C)NC(=O)[C@H](Cc1ccccc1)NC(=O)CNC(=O)CNC(=O)[C@@H](N)Cc1ccc(O)cc1)C(=O)N[C@@H](CCCNC(=N)N)C(=O)N1CCC[C@H]1C(=O)N[C@@H](CCCCN)C(=O)N[C@@H](CC(C)C)C(=O)N[C@@H](CCCCN)C(=O)O", "note": "[Dynorphin A, 1-13, Dynorphin A (1–13)]", "values": [{"measurement": "Ki", "setting": "KOR [3]", "value": "2.43 ± 0.2", "unit": "nM"}]}
{"molecule": "C[C@@H](NC(=O)[C@@H](N)Cc1ccc(O)cc1)C(=O)NCC(=O)N(C)[C@@H](Cc1ccccc1)C(=O)NCCO", "note": "[DAMGO]", "values": [{"measurement": "response (Figure S9b)", "setting": "MOR; M -6", "value": "34.0976 and 31.8296 and 33.2096"}, {"measurement": "response (Figure S9b)", "setting": "MOR; M -7", "value": "78.9066 and 72.2446 and 76.3636"}, {"measurement": "response (Figure S9b)", "setting": "MOR; M -8", "value": "84.8057 and 83.6246 and 84.5411"}, {"measurement": "response (Figure S9b)", "setting": "MOR; M -9", "value": "92.3096 and 93.4924"}, {"measurement": "response (Figure S9b)", "setting": "MOR; M -10", "value": "90.9034 and 89.2915 and 90.6654"}, {"measurement": "response (Figure S9b)", "setting": "MOR; M -11", "value": "93.7193 and 94.9714 and 95.2973"}, {"measurement": "response (Figure S9b)", "setting": "MOR; M -12", "value": "99.6463 and 100.354"}]}
